PMC12669630, “The twist-and-squeeze activation of CARF-fused adenosine deaminase by cyclic oligoadenylates” (The EMBO Journal, 2025)
Where two headings read alike, the source gives them in different places.

Columns and labels:
TaqCad1 [1] = target: T1, TaqCad1 (Thermoanaerobaculum aquaticum, UniProt A0A062XY19); experiment: microscale thermophoresis (RED-tris-NTA labelled protein); format: binding
T1 construct: gene EG19_07865; full length 1-625, C-terminal His6 tag kept, E. coli NiCo21(DE3); homohexamer (trimer of dimers); N-terminal CARF, C-terminal ADA domain

TaqCad1 [2] = target: T2, TaqCad1 (Thermoanaerobaculum aquaticum, UniProt A0A062XY19, N549D); experiment: HPLC ATP deamination assay; format: biochemical; details: no conversion; cA4 activator, Mg2+, pH 7.5, 55 °C
T2 construct: gene EG19_07865; full length 1-625, C-terminal His6 tag kept, E. coli NiCo21(DE3); homohexamer (trimer of dimers); N-terminal CARF, C-terminal ADA domain

TaqCad1 [3] = target: T3, TaqCad1 (Thermoanaerobaculum aquaticum, UniProt A0A062XY19, G264D/N549D); experiment: HPLC ATP deamination assay; format: biochemical; details: no conversion; cA4 activator, Mg2+, pH 7.5, 55 °C
T3 construct: gene EG19_07865; full length 1-625, C-terminal His6 tag kept, E. coli NiCo21(DE3); homohexamer (trimer of dimers); N-terminal CARF, C-terminal ADA domain

[4] = target: TaqCad1 R408D/A411E variant (Thermoanaerobaculum aquaticum); experiment: SEC; gel filtration elution profiles of wild type and R408D/A411E compared; column and buffer of this run not stated

T1 sequence (A0A062XY19 entry or part of it): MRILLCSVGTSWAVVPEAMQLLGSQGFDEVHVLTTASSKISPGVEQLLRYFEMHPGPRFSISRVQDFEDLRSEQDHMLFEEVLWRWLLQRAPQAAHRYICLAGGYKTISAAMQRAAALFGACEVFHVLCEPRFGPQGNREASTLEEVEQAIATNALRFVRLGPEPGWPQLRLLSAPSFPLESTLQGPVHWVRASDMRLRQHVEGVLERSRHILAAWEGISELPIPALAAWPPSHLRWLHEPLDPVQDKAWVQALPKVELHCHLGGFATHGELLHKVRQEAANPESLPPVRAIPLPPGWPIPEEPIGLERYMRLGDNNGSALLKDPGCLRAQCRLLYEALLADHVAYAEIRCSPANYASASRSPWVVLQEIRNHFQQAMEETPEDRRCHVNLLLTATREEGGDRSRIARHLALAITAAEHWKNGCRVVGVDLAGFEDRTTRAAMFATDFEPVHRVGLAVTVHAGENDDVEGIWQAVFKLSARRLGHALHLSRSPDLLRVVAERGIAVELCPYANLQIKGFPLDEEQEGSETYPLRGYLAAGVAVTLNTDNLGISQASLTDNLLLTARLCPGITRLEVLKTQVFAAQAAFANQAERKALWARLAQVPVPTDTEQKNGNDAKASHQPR
T3 sequence (A0A062XY19 entry or part of it G264D/N549D): as the sequence (A0A062XY19 entry or part of it) above, with G264D, N549D counted along it
T2 sequence (A0A062XY19 entry or part of it N549D): as the sequence (A0A062XY19 entry or part of it) above, with N549D counted along it

Nc1ncnc2c1ncn2[C@@H]1O[C@@H]2COP(=O)(O)O[C@H]3[C@@H](O)[C@H](n4cnc5c(N)ncnc54)O[C@@H]3COP(=O)(O)O[C@H]3[C@@H](O)[C@H](n4cnc5c(N)ncnc54)O[C@@H]3COP(=O)(O)O[C@H]3[C@@H](O)[C@H](n4cnc5c(N)ncnc54)O[C@@H]3COP(=O)(O)O[C@H]3[C@@H](O)[C@H](n4cnc5c(N)ncnc54)O[C@@H]3COP(=O)(O)O[C@H]3[C@@H](O)[C@H](n4cnc5c(N)ncnc54)O[C@@H]3COP(=O)(O)O[C@H]2[C@H]1O [cA6]
Kd (TaqCad1 [1]; read-out: apparent dissociation constant): ~1400 nM

Nc1ncnc2c1ncn2[C@@H]1O[C@H](COP(=O)(O)OP(=O)(O)OP(=O)(O)O)[C@@H](O)[C@H]1O [ATP]
HPLC ATP deamination assay (TaqCad1 [2]): the N549D or the N549D/G264D variant of TaqCad1 did not react to ATP
HPLC ATP deamination assay (TaqCad1 [3]): the N549D or the N549D/G264D variant of TaqCad1 did not react to ATP

TaqCad1 R408D/A411E variant (enzyme)
stoichiometry N [4]: 2

Nc1ncnc2c1ncn2[C@@H]1O[C@@H]2COP(=O)(O)O[C@H]3[C@@H](O)[C@H](n4cnc5c(N)ncnc54)O[C@@H]3COP(=O)(O)O[C@H]3[C@@H](O)[C@H](n4cnc5c(N)ncnc54)O[C@@H]3COP(=O)(O)O[C@H]3[C@@H](O)[C@H](n4cnc5c(N)ncnc54)O[C@@H]3COP(=O)(O)O[C@H]2[C@H]1O [cA4]
Kd (TaqCad1 [1]; read-out: apparent Kd): 13 ± 7 nM
